In the NIST ThermoML archive (doi:10.1016/j.jct.2015.09.002):
Numbers after ± are expanded uncertainties.

Assay: xn = mol fraction of the nth substance listed
Conditions: 93.2 kPa, Liquid, Vibrating tube method

CC(C)(C)N [2-methyl-2-propanamine] + CC#N
mass density [kg/m3]
Conditions	293.15 K	298.15 K	303.15 K	308.15 K
x2 = 0	692.06 ± 2	686.65 ± 2	681.18 ± 2	675.66 ± 2
x2 = 0.009	692.79 ± 2	687.38 ± 2	681.92 ± 2	676.4 ± 2
x2 = 0.0205	693.46 ± 2	688.06 ± 2	682.61 ± 2	677.1 ± 2
x2 = 0.0313	694.05 ± 2	688.66 ± 2	683.22 ± 2	677.72 ± 2
x2 = 0.0421	694.67 ± 2	689.29 ± 2	683.85 ± 2	678.36 ± 2
x2 = 0.0536	695.33 ± 2	689.95 ± 2	684.53 ± 2	679.04 ± 2
x2 = 0.0625	695.85 ± 2	690.48 ± 2	685.06 ± 2	679.59 ± 2
x2 = 0.0694	696.27 ± 2	690.86 ± 2	685.44 ± 2	679.97 ± 2
x2 = 0.0801	696.87 ± 2	691.5 ± 2	686.09 ± 2	680.61 ± 2
x2 = 0.0874	697.28 ± 2	691.92 ± 2	686.51 ± 2	681.05 ± 2
x2 = 0.1006	698.07 ± 2	692.74 ± 2	687.34 ± 2	681.89 ± 2
x2 = 0.1489	701.01 ± 2	695.71 ± 2	690.34 ± 2	684.92 ± 2
x2 = 0.2023	704.54 ± 2	699.21 ± 2	693.83 ± 2	688.43 ± 2
x2 = 0.2493	707.7 ± 2	702.41 ± 2	697.06 ± 2	691.72 ± 2
x2 = 0.3021	711.23 ± 2	705.97 ± 2	700.63 ± 2	695.28 ± 2
x2 = 0.3487	714.58 ± 2	709.33 ± 2	704 ± 2	698.63 ± 2
x2 = 0.3998	718.28 ± 2	713.06 ± 2	707.73 ± 2	702.38 ± 2
x2 = 0.4489	721.98 ± 2	716.77 ± 2	711.44 ± 2	706.12 ± 2
x2 = 0.501	726.15 ± 2	720.91 ± 2	715.64 ± 2	710.33 ± 2
x2 = 0.5485	730.26 ± 2	725.04 ± 2	719.77 ± 2	714.47 ± 2
x2 = 0.6009	735.01 ± 2	729.79 ± 2	724.53 ± 2	719.22 ± 2
x2 = 0.6494	739.58 ± 2	734.35 ± 2	729.08 ± 2	723.75 ± 2
x2 = 0.6932	743.94 ± 2	738.74 ± 2	733.46 ± 2	728.14 ± 2
x2 = 0.7494	749.81 ± 2	744.57 ± 2	739.28 ± 2	733.95 ± 2
x2 = 0.8001	755.58 ± 2	750.29 ± 2	744.99 ± 2	739.64 ± 2
x2 = 0.8497	761.5 ± 2	756.2 ± 2	750.87 ± 2	745.51 ± 2
x2 = 0.8984	767.7 ± 2	762.38 ± 2	757.02 ± 2	751.64 ± 2
x2 = 0.9093	769.13 ± 2	763.81 ± 2	758.46 ± 2	753.06 ± 2
x2 = 0.9202	770.57 ± 2	765.25 ± 2	759.88 ± 2	754.48 ± 2
x2 = 0.9292	771.83 ± 2	766.5 ± 2	761.11 ± 2	755.72 ± 2
x2 = 0.9401	773.34 ± 2	768 ± 2	762.61 ± 2	757.2 ± 2
x2 = 0.9501	774.73 ± 2	769.38 ± 2	763.99 ± 2	758.56 ± 2
x2 = 0.9599	776.15 ± 2	770.78 ± 2	765.38 ± 2	759.96 ± 2
x2 = 0.9699	777.57 ± 2	772.2 ± 2	766.79 ± 2	761.36 ± 2
x2 = 0.9795	778.96 ± 2	773.59 ± 2	768.17 ± 2	762.72 ± 2
x2 = 0.9892	780.39 ± 2	775.01 ± 2	769.59 ± 2	764.14 ± 2
